Experimental data taken from PMC12584752, “Covalent fragment screening to inhibit the E3 ligase activity of bacterial NEL enzymes SspH1 and SspH2” (RSC Chemical Biology, 2025).

How the values were obtained:
[1] = target: T1, HECT-type E3 UBE3C (Homo sapiens, UniProt Q15386); experiment: Intact LC-MS labelling selectivity; format: binding; details: dilution series 100–6.25 μM, 24 hours at 4 °C
T1 construct: UBE3C; 693–1083; His-tag (N, cleaved yes); made in house; host or cells: E. coli BL21
T1 sequence (Q15386 693-1083): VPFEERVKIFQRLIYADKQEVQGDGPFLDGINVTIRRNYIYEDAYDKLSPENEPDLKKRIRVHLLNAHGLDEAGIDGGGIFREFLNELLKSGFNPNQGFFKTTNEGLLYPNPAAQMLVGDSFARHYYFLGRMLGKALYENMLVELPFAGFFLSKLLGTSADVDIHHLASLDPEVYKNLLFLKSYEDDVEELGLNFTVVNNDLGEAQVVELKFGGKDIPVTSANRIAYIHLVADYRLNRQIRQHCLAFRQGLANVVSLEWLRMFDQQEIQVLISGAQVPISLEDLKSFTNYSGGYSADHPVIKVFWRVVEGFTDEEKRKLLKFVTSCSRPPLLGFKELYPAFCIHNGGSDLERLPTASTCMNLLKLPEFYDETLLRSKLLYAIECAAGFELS
Procedure: Fig. 3 Validation of HTC hit compounds by intact MS. Labelling heatmaps of dilution series (100–6.25 μM) of compounds 4–10 with (A) WT SspH1 and (B) C492K SspH1. Labelling heatmaps of dilution series of (C) compound 6 and (D) compound 7 with bacterial and human ubiquitin binding proteins. Recombinant proteins were incubated at either 1.0 or 0.5 μM with 50 μM fragments for 24 hours at 4 °C, before fragment labelling was analysed by intact LC-MS. Bacterial proteins are shown in bold and human proteins in italic fonts. (E)–(H) Kinetics analyses: time courses (0–12 hours) of compound labelling (100–1.56 μM) of SspH1 and SspH2 (0.5 μM) for (E) SspH1 and compound 7, and (F) SspH2 and compound 6. Measurements were performed in technical triplicates. Labelling percentages were plotted against time in GraphPad Prism v.10, and curves fitted separately for each replicate using one-phase association, with constraints Y0 = 0 and plateau = highest labelling percentage. Graphs for SspH1 and compound 6, and SspH2 and compound 7 are shown in Fig. S4A and B. Rate constants (kobs, as given by Graphpad Prism calculated K values) were plotted against fragment concentration in triplicate for (G) SspH1 and (H) SspH2. Straight lines were fitted with constraint Yintercept = 0. For SspH2 kinetics, 100 μM kobs was outside the linear range.
To mitigate the risk of selecting compounds which indiscriminately recognise ubiquitin binding proteins, we next performed preliminary selectivity studies with compounds 6 and 7 against human ubiquitin system proteins. […] In parallel, we tested the compounds against related NEL E3 ligases SspH2 and IpaH9.8. […] Our identification of dual SspH1 and SspH2 ligands is likely due to the high protein sequence similarity of SspH1 and SspH2 (60% for full length; 78% for NEL domains).
Dilution series experiments were performed as for 1st round screening. 1 μM OTUD4, OTUD5 or 0.5 μM HOIL, UbcH5A, SspH2, SspH1 C492K were incubated with 100–6.25 μM compounds for 24 hours at 4 °C, in 25 mM HEPES pH 7.5, 50 mM NaCl buffer. Intact protein LC-MS was performed as previously described.[40] The following deconvolution conditions were used for recombinant proteins studied in this work: […]

[2] = system: HEK293T cells; experiment: Cell toxicity observed during in-cell treatment; format: cell-based, human; details: 50 μM, four hours
Procedure: We next interrogated whether compounds 6 or 7 could engage SspH1 or SspH2 in live human cells. To simplify experimental setup, we opted for NEL overexpression in mammalian cells, coupled with chemoproteomics, over a Salmonella infection-based assay. SspH1 or SspH2 were transiently expressed in HEK293T cells (Fig. S6), and cells treated with 50 μM of either compound 6 or 7 for four hours. […] Following cell lysis, we again utilized an IA-DTB chemoproteomics workflow to assess cysteine engagement.[52] Peptides engaging with compound 6 were identified with an average log2 CR ≤ −1 and P-value ≤0.05 when compared to DMSO controls (Fig. 5C and D). […] However, none of these included catalytic cysteines-containing peptides of HECT or RBR E3 ligases, nor of DUBs. Therefore, compound 6 provides a useful starting point for medicinal chemistry campaigns to design potent and specific tool compounds for SspH1 and SspH2.
All cells were grown in DMEM media (Gibco, 41966-029) supplemented with FBS (ThermoFisher, A5256701) and Pen/Strep (Gibco, 15140-122) at 37 °C with 5% CO2. SspH1 (aa 1–700) and SspH2 (aa 1–786) genes were cloned separately into […] plasmids. HEK293T cells were seeded in 6-well plates at a density of 2 × 10^5 cells per well. […] Protein concentrations were measured using a Rapid BCA Gold Protein Assay Kit (Thermo Scientific, A53226) and diluted to 1 mg mL^−1 with lysis buffer. […]

Structure (SMILES)	labelling of UBE3C [1]	cell toxicity [2]
Cc1cc(-c2nc3ccccc3n2C2CCN(C(=O)CCl)CC2)cc(C)c1O.Cl [compound 6]	minimal or no labelling	no apparent cell toxicity
Cl.O=C(CCl)N1CCC(n2c(-c3ccc(C(F)(F)F)cc3)nc3ccccc32)CC1 [compound 7]	minimal or no labelling	significant effects on cell attachment and potential toxicity
